Test system: Trypanosoma cruzi
Experiment: Antitrypanosomal activity against Trypanosoma cruzi Tulahuen infected in mouse 3T3 cells
Type: functional, organism-based
Settings: NIH3T3

| EC50 [nM] | Structure (SMILES) |
| --- | --- |
| 120 | COC(c1ccc(Cl)cc1)(c1ccc2cnccc2c1)c1cncn1C (stereo not given) |
| 0.9 | COC(c1ccc(Cl)cc1)(c1ccc2cncc(-c3c(F)cccc3F)c2c1)c1cncn1C (stereo not given) |
| 0.5 | COC(c1ccc(Cl)cc1)(c1ccc2cncc(-c3cccc(Cl)c3)c2c1)c1cncn1C (stereo not given) |

| Structure (SMILES) | EC50 [nM] |
| --- | --- |
| CC[C@@H]([C@H](C)O)n1ncn(-c2ccc(N3CCN(c4ccc(OC[C@@H]5CO[C@@](Cn6cncn6)(c6ccc(F)cc6F)C5)cc4)CC3)cc2)c1=O [POSACONAZOLE] | 0.3 |
| Cn1cncc1[C@@](N)(c1ccc(Cl)cc1)c1ccc2c(c1)c(-c1cccc(Cl)c1)cc(=O)n2C [TIPIFARNIB] | 4 |

— ChEMBL document CHEMBL1154671, “Isoquinoline-based analogs of the cancer drug clinical candidate tipifarnib as anti-Trypanosoma cruzi agents” (Bioorg Med Chem Lett, 2009)
